Measured values from the Deep4Chem optical property database.

Test: solvent given as SMILES
[1] = in c1cc(-c2cccc(-n3c4ccccc4c4ccccc43)c2)cc(-n2c3ccccc3c3ccccc32)c1

c1ccc(-c2c3c(c(-c4ccccc4)c4cc5ccccc5cc24)Cc2c(c(-c4ccccc4)c4cc5ccccc5cc4c2-c2ccccc2)C3)cc1
fluorescence lifetime (in CC#N): 6.87 ns
fluorescence lifetime (in CCCCCC): 3.8 ns
fluorescence lifetime (in CO): 3.68 ns
fluorescence lifetime (in Cc1ccccc1): 3.24 ns
fluorescence lifetime (in ClCCl): 2.58 ns

COc1ccc(C2=C3C(C)=CC(C)=[N+]3[B-](F)(F)n3c(/C=C/c4ccc(N(C)C)cc4)cc(C)c32)cc1
fluorescence lifetime (in C1CCCCC1): 3.5 ns
fluorescence lifetime (in C1CCOC1): 3 ns
fluorescence lifetime (in C1COCCO1): 3.43 ns
fluorescence lifetime (in CC#N): 1.2 ns
fluorescence lifetime (in CC(C)=O): 2.23 ns
fluorescence lifetime (in CCC#N): 1.84 ns
fluorescence lifetime (in CCCC#N): 2.26 ns
fluorescence lifetime (in CCCCO): 2.45 ns
fluorescence lifetime (in CCOC(C)=O): 3.31 ns
fluorescence lifetime (in CCOCC): 3.74 ns
fluorescence lifetime (in CO): 0.85 ns
fluorescence lifetime (in Cc1ccccc1): 3.25 ns
fluorescence lifetime (in ClC(Cl)Cl): 3.47 ns

O=[N+]([O-])c1ccc(F)cc1C1CC(c2cccc3ccccc23)=NN1c1ccccc1 (configuration not stated)
fluorescence lifetime (in C1CCCCC1): 3.08 ns
fluorescence lifetime (in C1CCOC1): 3.76 ns
fluorescence lifetime (in C1COCCO1): 3.77 ns
fluorescence lifetime (in CC#N): 3.81 ns
fluorescence lifetime (in CC(C)O): 2.85 ns
fluorescence lifetime (in CCOC(C)=O): 3.67 ns
fluorescence lifetime (in CCOCC): 3.53 ns
fluorescence lifetime (in CO): 2.86 ns
fluorescence lifetime (in Cc1ccccc1): 3.29 ns
fluorescence lifetime (in ClC(Cl)Cl): 3.68 ns
fluorescence lifetime (in O): 1.4 ns

CCCCCC(=O)c1c2c(c(C(=O)CCCCC)c3c1OC1(CCCC1)O3)OC1(CCCC1)O2
fluorescence lifetime (in CC#N): 20.3 ns
fluorescence lifetime (in CCCCCC): 15.3 ns
fluorescence lifetime (in CCO): 11.6 ns
fluorescence lifetime (in CO): 5.9 ns
fluorescence lifetime (in ClCCl): 24.4 ns

CN(CC(O)c1cccc(O)c1)c1ccc([N+](=O)[O-])c(C2CC(c3cccc4ccccc34)=NN2c2ccccc2)c1 (configuration not stated)
fluorescence lifetime (in C1CCCCC1): 1.14 ns
fluorescence lifetime (in C1CCOC1): 3.56 ns
fluorescence lifetime (in C1COCCO1): 3.58 ns
fluorescence lifetime (in CC#N): 3.95 ns
fluorescence lifetime (in CC(C)O): 3.42 ns
fluorescence lifetime (in CCOC(C)=O): 4.01 ns
fluorescence lifetime (in CCOCC): 2 ns
fluorescence lifetime (in CO): 3.01 ns
fluorescence lifetime (in Cc1ccccc1): 1.72 ns
fluorescence lifetime (in ClC(Cl)Cl): 2.8 ns
fluorescence lifetime (in O): 2.42 ns

CCN(CC)c1ccc(-c2nc3c(c4c2-c2ccccc2CC4)-c2ccccc2CC3)cc1
fluorescence lifetime (in C1CCOC1): 1.06 ns
fluorescence lifetime (in CC#N): 0.68 ns
fluorescence lifetime (in CCOC(C)=O): 0.85 ns
fluorescence lifetime (in CO): 0.68 ns
fluorescence lifetime (in CS(C)=O): 1.02 ns
fluorescence lifetime (in Cc1ccccc1): 0.8 ns
fluorescence lifetime (in ClCCl): 1.22 ns

N#Cc1ccc(C[C@H](N)C(=O)O)cc1
fluorescence lifetime (in C1CCOC1): 3.65 ns
fluorescence lifetime (in CC#N): 3.73 ns
fluorescence lifetime (in CC(C)O): 4 ns
fluorescence lifetime (in CC(O)CO): 4.28 ns
fluorescence lifetime (in CCCCO): 4.6 ns
fluorescence lifetime (in CCCO): 4.4 ns
fluorescence lifetime (in CCO): 4.1 ns
fluorescence lifetime (in CO): 6.1 ns
fluorescence lifetime (in NC=O): 4.54 ns
fluorescence lifetime (in O): 7 ns
fluorescence lifetime (in O=CO): 8.1 ns

COc1ccc(/C=C/C2=[O+][B-](F)(F)OC(/C=C/c3ccc(OC)cc3)=C2c2ccc(OC)cc2)cc1
fluorescence lifetime (in ClCCl): 1.31 ns

CCOC(=O)CN1C(=O)C2=C(c3ccc(N4CCCCC4)cc3)N(CC(=O)OCC)C(=O)C2=C1c1ccccc1
fluorescence lifetime (in CC#N): 2.7 ns
fluorescence lifetime (in CS(C)=O): 6.7 ns
fluorescence lifetime (in Cc1ccccc1): 4 ns

COc1cc(OC)c2cc(-c3ccccc3CC#N)c(=O)oc2c1
fluorescence lifetime (in ClC(Cl)Cl): 2.8 ns

Brc1ccc(-c2nc(-c3ccc(-c4nc(-c5ccc(Br)cc5)c(-c5ccc(Br)cc5)[nH]4)cc3)[nH]c2-c2ccc(Br)cc2)cc1
fluorescence lifetime (in CS(C)=O): 0.55 ns

Cc1ccc(-n2c(C)ccc2C)cc1
fluorescence lifetime (in CC#N): 4.4 ns

COC(=O)c1cc(=O)n(C)c2cc(-c3ccc(N4CCN(C)CC4)cc3)sc12
fluorescence lifetime (in ClCCl): 1.5 ns

CCC12C(=C3C(=C4c5ccc(-c6ccc(C(C)=O)cc6)cc5S(=O)(=O)C41CC)C(F)(F)C(F)(F)C3(F)F)c1ccc(-c3ccc(C(C)=O)cc3)cc1S2(=O)=O (configuration not stated)
fluorescence lifetime (in C1COCCO1): 2.8 ns

CC(=O)[B-]1(C(C)=O)OC(c2ccc3ccccc3c2)=CC(c2ccc3ccccc3c2)=[O+]1
fluorescence lifetime (in CC#N): 5.5 ns
fluorescence lifetime (in ClC(Cl)(Cl)Cl): 1.1 ns

COc1ccc(-c2cc3c(s2)c(C(C)=O)cc(=O)n3C)cc1
fluorescence lifetime (in ClCCl): 1.51 ns

CC[Si](CC)(CC)Oc1cccc(O[Si](CC)(CC)CC)c1-c1c2ccccc2c(-c2c(O[Si](CC)(CC)CC)cccc2O[Si](CC)(CC)CC)c2ccccc12
fluorescence lifetime (in C1CCCCC1): 7.8 ns

CC(C)(C)c1ccc2c(c1)c1cc(C(C)(C)C)ccc1n2-c1ccc(S(=O)(=O)c2ccc(-n3c4ccc(C(C)(C)C)cc4c4cc(C(C)(C)C)ccc43)cc2)cc1
fluorescence lifetime (in Cc1ccccc1): 5.3 ns
fluorescence lifetime (in O=P(c1ccccc1)(c1ccccc1)c1ccccc1Oc1ccccc1P(=O)(c1ccccc1)c1ccccc1): 7.6 ns

C=Cc1cc2cc3c(cc2oc1=O)OCO3
fluorescence lifetime (in CC#N): 3.68 ns

Clc1ccc(/C=C/c2nc3ccccc3o2)cc1
fluorescence lifetime (in C1CCCCC1): 0.2 ns
fluorescence lifetime (in CO): 0.16 ns

COc1cc2c(cc1-c1ccc(N(c3ccccc3)c3ccccc3)cc1)Cc1c3c(c4c(c1-2)-c1cc(OC)c(-c2ccc(N(c5ccccc5)c5ccccc5)cc2)cc1C4)C(=O)N(CCC(C)C)C3=O
fluorescence lifetime (in C1CCOC1): 4.14 ns

CC1=CC(C)=[N+]2C1=C(c1ccc(I)cc1)c1c(C)cc(C)n1[B-]2(F)F
fluorescence lifetime (in ClC(Cl)Cl): 3.11 ns

c1ccc(-c2nc(-c3ccc(-c4ccc(-c5ccc(-c6nc(-c7ccccc7)c(-c7ccccc7)o6)cc5)cc4)cc3)oc2-c2ccccc2)cc1
fluorescence lifetime (in C1COCCO1): 0.78 ns

Cc1nnc(-c2ccc(-n3c4ccccc4c4ccccc43)cc2)o1
fluorescence lifetime (in CCO): 2.07 ns

c1ccc2c(c1)[nH]c1cccnc12
fluorescence lifetime (in C1CCCCC1): 4.6 ns

F[B-]1(F)n2c(c3cccc4cccc2c43)=Nc2cccc(Cl)[n+]21
fluorescence lifetime (in ClCCl): 6.4 ns

CCCCCCOc1ccc(/C=C/c2ccc(N(c3ccc(/C=C/c4ccc(OCCCCCC)cc4)cc3)c3ccc(-c4nc5ccccc5nc4-c4ccc(N(c5ccc(/C=C/c6ccc(OCCCCCC)cc6)cc5)c5ccc(/C=C/c6ccc(OCCCCCC)cc6)cc5)cc4)cc3)cc2)cc1
fluorescence lifetime (in C1CCOC1): 2.05 ns

Cc1ccc(-c2nc(-c3ccc(-c4nc(-c5ccc(C)cc5)c(-c5ccc(C)cc5)[nH]4)cc3)[nH]c2-c2ccc(C)cc2)cc1
fluorescence lifetime (in CS(C)=O): 1.07 ns

CC(C)(C)NC(=O)c1ccc2ccc3cccc4c3c2c1c1c2ccccc2c2ccccc2c41
fluorescence lifetime (in ClCCl): 11.9 ns

N#Cc1cc(N2c3ccccc3Sc3ccccc32)c(N2c3ccccc3Sc3ccccc32)cc1C#N
fluorescence lifetime (in c1ccc2c(c1)c1ccccc1n2-c1ccc(-c2ccc(-n3c4ccccc4c4ccccc43)cc2)cc1): 48.2 ns

COc1ccc(C#Cc2ccc(C#Cc3ccc(C#Cc4ccccc4C#N)cc3C#N)cc2C#N)cc1
fluorescence lifetime (in C1CCOC1): 1.29 ns
fluorescence lifetime (in CC#N): 1.29 ns
fluorescence lifetime (in CN(C)C=O): 1.38 ns
fluorescence lifetime (in ClC(Cl)Cl): 1.36 ns
fluorescence lifetime (in c1ccccc1): 1.45 ns

Cc1cc(C)c2c(c1)c1cc(C)cc(C)c1n2-c1ccc2c(c1)B(c1c(C(C)C)cc(C(C)C)cc1C(C)C)c1cc(-n3c4c(C)cc(C)cc4c4cc(C)cc(C)c43)ccc1N2c1ccccc1
fluorescence lifetime [1]: 9 ns

CN(C)c1ccc(C2=Nc3sc4ccccc4[n+]3[B-](F)(F)O2)cc1
fluorescence lifetime (in Cc1ccccc1): 1.74 ns

CCCCCCc1cc(-c2ccc3c(c2)C2CCCC2N3c2ccc3c(c2)C(C)(C)c2ccccc2-3)sc1/C=C1\C(=O)c2ccc(C(=O)O)cc2C1=O (configuration not stated)
fluorescence lifetime (in ClC(Cl)Cl): 1.32 ns

COC(=O)c1cc(=O)n(C)c2cc(-c3ccc4c(c3)OCO4)sc12
fluorescence lifetime (in ClCCl): 1.72 ns

CC(C)c1ccc2ccc3c(C(C)C)ccc4ccc1c2c43
fluorescence lifetime (in CCCCCC): 52.9 ns
fluorescence lifetime (in CO): 85.7 ns
fluorescence lifetime (in ClCCl): 40.3 ns

COc1ccccc1C1=[N+]2C(=C(c3ccccc3)c3c4ccccc4c(-c4ccccc4OC)n3[B-]2(F)F)c2ccccc21
fluorescence lifetime (in ClCCl): 5.8 ns

c12c3c4c5c1c1c6c7c2c2c8c3c3c9c4c4c%10c5c5c1c1c6c6c%11c%12c%13c%14c%15c%16c%17c%14c%14c%18c%13c%11c1c1c5c%10c5c(c%14c%10c%17c%11c%13c%16c%14c%16c%15c%12c%12c%16c(c2c7c%126)c2c8c3c(c%13c%142)c2c9c4c5c%10c%112)c%181
fluorescence lifetime (in CC1CCCCC1): 0.65 ns

CCCCCCCCCCCn1cccc1C1=[N+]2C(=Cc3c(C)cc(C)n3[B-]2(F)F)c2ccccc21
fluorescence lifetime (in ClCCl): 8.89 ns

O=C(c1ccccc1)c1cc2ccc1CCc1ccc(cc1-c1ccc(N(c3ccccc3)c3ccccc3)cc1)CC2
fluorescence lifetime (in c1cc(-n2c3ccccc3c3ccccc32)cc(-n2c3ccccc3c3ccccc32)c1): 17 ns

CCN(CC)c1ccc2c(c1)oc(=O)c1c(C)nc3c(c(-c4ccccc4)nn3-c3ccccc3)c12
fluorescence lifetime (in ClCCl): 3.51 ns

C=CCOc1nnc(OCCC(F)(F)C(F)(F)C(F)(F)C(F)(F)C(F)(F)C(F)(F)F)nn1
fluorescence lifetime (in ClCCl): 63.8 ns
fluorescence lifetime (in OCC(F)(F)F): 8.7 ns

CC(C)(C)[Si](C)(C)c1ccc([Si](C)(C)C(C)(C)C)c2ccccc12
fluorescence lifetime (in C1CCCCC1): 12 ns

C=CCNS(=O)(=O)c1ccc2c(c1)C(=O)/C(=C1\Sc3ccc(S(=O)(=O)NCC=C)cc3C1=O)S2
fluorescence lifetime (in CN(C)C=O): 8.17 ns
fluorescence lifetime (in CS(C)=O): 0.06 ns

COc1ccccc1
fluorescence lifetime (in C1CCCCC1): 11.1 ns

CCC(CC)COC1=CC2=C3c4cc(OCC(CC)CC)c(-c5ccccc5)n4[B-](F)(F)[n+]4c3n(c3cc(C(C)(C)C)ccc34)[B-](F)(F)[N+]2=C1c1ccccc1
fluorescence lifetime (in C1CCOC1): 0.97 ns
fluorescence lifetime (in ClCCl): 1.01 ns

CC(C)(C)c1ccc2c(c1)[nH]c1c3[nH]c4cc(C(C)(C)C)ccc4c3c3nsnc3c21
fluorescence lifetime (in CN(C)C=O): 2.29 ns
fluorescence lifetime (in Cc1ccccc1): 1.5 ns
fluorescence lifetime (in ClCCl): 2.61 ns

Cc1cc(C)c(-c2nnc(-c3ccc(-n4c5ccccc5c5ccccc54)cc3)o2)c(C)c1
fluorescence lifetime (in CCO): 2.1 ns

CCCCCc1c(C(=O)c2ccc3c4c(cccc24)-c2cccc4c2C3CC=C4)c2ccc3cccc4c5cccc6ccc1c(c65)c2c34 (configuration not stated)
fluorescence lifetime (in ClCCl): 1.09 ns

Cc1ccccc1-c1cc(-c2ccc(N3c4ccccc4C(C)(C)c4ccccc43)cc2)nc(-c2ccccc2)n1
fluorescence lifetime (in Cc1ccccc1): 2.76 ns
fluorescence lifetime (in ClCCl): 22.7 ns

C(=C\c1cccc2ccccc12)/c1ccc(-c2nnc(-c3ccc(-c4cc5ccccc5s4)cc3)o2)cc1
fluorescence lifetime (in Cc1ccccc1): 0.97 ns
fluorescence lifetime (in ClC(Cl)Cl): 1.15 ns

CC(C)c1cc(C(C)C)c(B2c3cc(N4c5ccccc5Oc5ccccc54)ccc3N(c3ccccc3)c3ccc(N4c5ccccc5Oc5ccccc54)cc32)c(C(C)C)c1
fluorescence lifetime [1]: 54 ns

CCn1c2ccccc2c2cc(-c3cc(-c4ccc5c(c4)c4ccccc4n5CC)nc(-c4ccc(C#N)cc4)n3)ccc21
fluorescence lifetime (in C1CCOC1): 5.14 ns
